US20150203512
Read-outs that look alike come from different tables or passages of the source.

Conditions: rcm bond, Zhan-1B, dichloromethane, 25.0 °C

In the case of CN1C(=O)C=CCCNc2cc(F)ccc2CNC(=O)c2nc3n(c(=O)c2O)CCCCC31 (centres unmarked), the ring closure, yield of all isomers (from C=CCCNc1cc(F)ccc1CNC(=O)c1nc2n(c(=O)c1O)CCCCC2N(C)C(=O)C=C, 2.0 mM, 20.0 h) is reported as 53%.

Work on CN1CCC=CC(=O)N(C)C2CCCCn3c2nc(c(O)c3=O)C(=O)NCc2ccc(F)cc21 (centres unmarked) yielded a ring closure, yield of all isomers (from C=CCCN(C)c1cc(F)ccc1CNC(=O)c1nc2n(c(=O)c1O)CCCCC2N(C)C(=O)C=C, 1.4 mM, 20.0 h) of 63%.

With CN1C(=O)C=CCCOc2cc(F)ccc2CNC(=O)c2nc3n(c(=O)c2O)CCCCC31 (centres unmarked) the ring closure, yield of all isomers (from C=CCCOc1cc(F)ccc1CNC(=O)c1nc2n(c(=O)c1O)CCCCC2N(C)C(=O)C=C, 5.14 mM, 15.0 h) was 51%.

CN1C(=O)CCCC=Cc2cc(F)ccc2CNC(=O)c2nc3n(c(=O)c2OS(C)(=O)=O)CCCCC31 (centres unmarked) gave a ring closure, yield of all isomers (from C=CCCCC(=O)N(C)C1CCCCn2c1nc(C(=O)NCc1ccc(F)cc1C=C)c(OS(C)(=O)=O)c2=O, 0.9 mM, 24.0 h) of 85%.

In the case of CN1C(=O)OCCCC=Cc2cc(F)ccc2CNC(=O)c2nc3n(c(=O)c2OS(C)(=O)=O)CCCCC31 (centres unmarked), the ring closure, yield of all isomers (from C=CCCCOC(=O)N(C)C1CCCCn2c1nc(C(=O)NCc1ccc(F)cc1C=C)c(OS(C)(=O)=O)c2=O, 4.25 mM, 15.0 h) is reported as 97%.

Work on CN1CC=Cc2cc(F)ccc2CNC(=O)c2nc3n(c(=O)c2OS(C)(=O)=O)CCCCC3N(C)C(=O)C1=O (centres unmarked) yielded a ring closure, yield of all isomers (from C=CCN(C)C(=O)C(=O)N(C)C1CCCCn2c1nc(C(=O)NCc1ccc(F)cc1C=C)c(OS(C)(=O)=O)c2=O, 2.6 mM, 60.0 h) of 67%.

CC[C@H]1COC[C@@H]2c3nc(c(O)c(=O)n31)C(=O)NCc1ccc(F)cc1N(C)CCC=CC(=O)N2C showed a ring closure, yield of all isomers (from C=CCCN(C)c1cc(F)ccc1CNC(=O)c1nc2n(c(=O)c1O)[C@@H](CC)COC[C@H]2N(C)C(=O)C=C, 2.4 mM, 15.0 h) of 62%.

For CC[C@H]1COC[C@@H]2c3nc(c(O)c(=O)n31)C(=O)NCc1ccc(F)cc1OCCC=CC(=O)N2C, the ring closure, yield of all isomers (from C=CCCOc1cc(F)ccc1CNC(=O)c1nc2n(c(=O)c1O)[C@@H](CC)COC[C@H]2N(C)C(=O)C=C, 3.88 mM, 15.0 h) was 51%.
